Values after ≈ are worked out from the molar mass of the structure shown.
How the values were obtained:
Format in all cases: functional
Candida albicans [1] = test: Antifungal activity against Candida albicans CPCC400616 measured after 24 hrs by broth microdilution assay
Candida albicans [2] = test: Antifungal activity against Candida albicans ATCC SC5314 measured after 24 hrs by broth microdilution assay
[Candida] zeylanoides = Antifungal activity against Candida zeylanoides CMGCC2.3739 measured after 24 hrs by broth microdilution assay; conditions: Dujonia zeylanoides
Cryptococcus neoformans = test: Antifungal activity against Cryptococcus neoformans CMGCC2.3161 measured after 72 hrs by broth microdilution assay
Pichia kudriavzevii = test: Antifungal activity against Candida krusei AS2.1045 measured after 24 hrs by broth microdilution assay
Nakaseomyces glabratus = test: Antifungal activity against Candida glabrata measured after 24 hrs by broth microdilution assay
Candida parapsilosis = test: Antifungal activity against Candida parapsilosis ATCC 22019 measured after 24 hrs by broth microdilution assay; conditions: Lodderomyces parapsilosis
Aspergillus fumigatus = test: Antifungal activity against Aspergillus fumigatus CMGCC3.7795 measured after 72 hrs by broth microdilution assay
Candida albicans [3] = test: Antifungal activity against fluconazole-resistant Candida albicans CaR assessed as inhibition of microbial growth after 24 hrs by broth microdilution method
Candida albicans [4] = test: Antifungal activity against fluconazole-resistant Candida albicans 17# assessed as inhibition of microbial growth after 24 hrs by broth microdilution method
Candida albicans [5] = test: Antifungal activity against fluconazole-resistant Candida albicans 632 assessed as inhibition of microbial growth after 24 hrs by broth microdilution method
Candida albicans [6] = test: Antifungal activity against fluconazole-resistant Candida albicans 901 assessed as inhibition of microbial growth after 24 hrs by broth microdilution method
Candida albicans [7] = test: Antifungal activity against fluconazole-resistant Candida albicans 904 assessed as inhibition of microbial growth after 24 hrs by broth microdilution method
Candida albicans [8] = test: Potency index, ratio of fluconazole MIC to test compound MIC for Candida albicans CPCC400616 measured after 24 hrs by broth microdilution assay

Q: With `Fc1ccc(C[Se]C(Cn2cncn2)c2ccc(F)cc2F)cc1` (configuration not stated) as the molecule, how does the MIC (Candida albicans [1]) read?
A: 1 µg/mL (≈ 2.52 µM)

Q: And the MIC (Candida albicans [2])?
A: 0.25 µg/mL (≈ 0.631 µM)

Q: And the MIC ([Candida] zeylanoides)?
A: 4 µg/mL (≈ 10.1 µM)

Q: What about the MIC (Cryptococcus neoformans) of the same molecule?
A: 0.5 µg/mL (≈ 1.26 µM)

Q: And the MIC (Pichia kudriavzevii)?
A: 8 µg/mL (≈ 20.2 µM)

Q: And the MIC (Nakaseomyces glabratus)?
A: 2 µg/mL (≈ 5.05 µM)

Q: What about the MIC (Candida parapsilosis) of the same molecule?
A: 32 µg/mL (≈ 80.8 µM)

Q: And the MIC (Aspergillus fumigatus)?
A: 8 µg/mL (≈ 20.2 µM)

Q: And the MIC (Candida albicans [3])?
A: 128 µg/mL

Q: And the MIC (Candida albicans [4])?
A: 32 µg/mL

Q: What about the MIC (Candida albicans [5]) of the same molecule?
A: > 128 µg/mL

Q: And the MIC (Candida albicans [6])?
A: > 128 µg/mL

Q: What about the MIC (Candida albicans [7]) of the same molecule?
A: 64 µg/mL

Q: `Cc1cccc([Se]C(Cn2ccnc2)c2ccc(F)cc2F)c1` (configuration not stated) was tested. Which MIC (Candida albicans [1]) did it give?
A: 0.25 µg/mL (≈ 0.663 µM)

Q: What about the MIC (Candida albicans [2]) of the same molecule?
A: 0.03 µg/mL (≈ 0.0795 µM)

Q: And the MIC ([Candida] zeylanoides)?
A: 0.5 µg/mL (≈ 1.33 µM)

Q: And the MIC (Cryptococcus neoformans)?
A: 0.25 µg/mL (≈ 0.663 µM)

Q: What about the MIC (Pichia kudriavzevii) of the same molecule?
A: 0.06 µg/mL (≈ 0.159 µM)

Q: What about the MIC (Nakaseomyces glabratus) of the same molecule?
A: 1 µg/mL (≈ 2.65 µM)

Q: And the MIC (Candida parapsilosis)?
A: 0.25 µg/mL (≈ 0.663 µM)

Q: What about the MIC (Aspergillus fumigatus) of the same molecule?
A: 8 µg/mL (≈ 21.2 µM)

Q: And the MIC (Candida albicans [3])?
A: 4 µg/mL

Q: And the MIC (Candida albicans [4])?
A: 8 µg/mL

Q: And the MIC (Candida albicans [5])?
A: 0.5 µg/mL

Q: And the MIC (Candida albicans [6])?
A: 4 µg/mL

Q: And the MIC (Candida albicans [7])?
A: 1 µg/mL

Q: And the Ratio (Candida albicans [8])?
A: 8

Q: `Fc1ccc(C(Cn2cncn2)[Se]Cc2ccccc2)c(F)c1` (configuration not stated) was tested. Which MIC (Candida albicans [1]) did it give?
A: 0.5 µg/mL (≈ 1.32 µM)

Q: What about the MIC (Candida albicans [2]) of the same molecule?
A: 0.06 µg/mL (≈ 0.159 µM)

Q: And the MIC ([Candida] zeylanoides)?
A: 8 µg/mL (≈ 21.1 µM)

Q: What about the MIC (Cryptococcus neoformans) of the same molecule?
A: 4 µg/mL (≈ 10.6 µM)

Q: What about the MIC (Pichia kudriavzevii) of the same molecule?
A: 4 µg/mL (≈ 10.6 µM)

Q: And the MIC (Nakaseomyces glabratus)?
A: 2 µg/mL (≈ 5.29 µM)

Q: What about the MIC (Candida parapsilosis) of the same molecule?
A: 16 µg/mL (≈ 42.3 µM)

Q: What about the MIC (Aspergillus fumigatus) of the same molecule?
A: 8 µg/mL (≈ 21.1 µM)

Q: And the MIC (Candida albicans [3])?
A: 128 µg/mL

Q: And the MIC (Candida albicans [4])?
A: 32 µg/mL

Q: What about the MIC (Candida albicans [5]) of the same molecule?
A: > 128 µg/mL

Q: What about the MIC (Candida albicans [6]) of the same molecule?
A: 16 µg/mL

Q: And the MIC (Candida albicans [7])?
A: 16 µg/mL

Q: How did the MIC (Candida albicans [1]) turn out when `Clc1ccc(C[Se]C(Cn2cncn2)c2ccc(Cl)cc2Cl)c(Cl)c1` (configuration not stated) was run?
A: 0.25 µg/mL (≈ 0.521 µM)

Q: And the MIC (Candida albicans [2])?
A: 0.25 µg/mL (≈ 0.521 µM)

Q: What about the MIC ([Candida] zeylanoides) of the same molecule?
A: 128 µg/mL (≈ 267 µM)

Q: What about the MIC (Cryptococcus neoformans) of the same molecule?
A: 64 µg/mL (≈ 133 µM)

Q: And the MIC (Pichia kudriavzevii)?
A: 128 µg/mL (≈ 267 µM)

Q: What about the MIC (Nakaseomyces glabratus) of the same molecule?
A: 0.5 µg/mL (≈ 1.04 µM)

Q: And the MIC (Candida parapsilosis)?
A: 64 µg/mL (≈ 133 µM)

Q: What about the MIC (Aspergillus fumigatus) of the same molecule?
A: 16 µg/mL (≈ 33.3 µM)

Q: And the MIC (Candida albicans [3])?
A: > 128 µg/mL

Q: What about the MIC (Candida albicans [4]) of the same molecule?
A: > 128 µg/mL

Q: What about the MIC (Candida albicans [5]) of the same molecule?
A: > 128 µg/mL

Q: And the MIC (Candida albicans [6])?
A: > 128 µg/mL

Q: And the MIC (Candida albicans [7])?
A: > 128 µg/mL

Q: Which MIC (Candida albicans [1]) does the source give for `Cc1ccc(C)c([Se]C(Cn2ccnc2)c2ccc(F)cc2F)c1` (configuration not stated) here?
A: 0.25 µg/mL (≈ 0.639 µM)

Q: What about the MIC (Candida albicans [2]) of the same molecule?
A: 0.06 µg/mL (≈ 0.153 µM)

Q: And the MIC ([Candida] zeylanoides)?
A: 0.5 µg/mL (≈ 1.28 µM)

Q: What about the MIC (Cryptococcus neoformans) of the same molecule?
A: 0.25 µg/mL (≈ 0.639 µM)

Q: And the MIC (Pichia kudriavzevii)?
A: 0.13 µg/mL (≈ 0.332 µM)

Q: And the MIC (Nakaseomyces glabratus)?
A: 0.5 µg/mL (≈ 1.28 µM)

Q: What about the MIC (Candida parapsilosis) of the same molecule?
A: 0.13 µg/mL (≈ 0.332 µM)

Q: What about the MIC (Aspergillus fumigatus) of the same molecule?
A: 8 µg/mL (≈ 20.4 µM)

Q: And the MIC (Candida albicans [3])?
A: 8 µg/mL

Q: And the MIC (Candida albicans [4])?
A: 4 µg/mL

Q: And the MIC (Candida albicans [5])?
A: 2 µg/mL

Q: And the MIC (Candida albicans [6])?
A: 4 µg/mL

Q: What about the MIC (Candida albicans [7]) of the same molecule?
A: 8 µg/mL

Q: What about the Ratio (Candida albicans [8]) of the same molecule?
A: 8

Q: With `Fc1ccc(C(Cn2cncn2)[Se]Cc2ccccc2Cl)c(F)c1` (configuration not stated) as the molecule, how does the MIC (Candida albicans [1]) read?
A: 0.03 µg/mL (≈ 0.0727 µM)

Q: And the MIC (Candida albicans [2])?
A: 0.13 µg/mL (≈ 0.315 µM)

Q: And the MIC ([Candida] zeylanoides)?
A: 1 µg/mL (≈ 2.42 µM)

Q: And the MIC (Cryptococcus neoformans)?
A: 2 µg/mL (≈ 4.85 µM)

Q: What about the MIC (Pichia kudriavzevii) of the same molecule?
A: 2 µg/mL (≈ 4.85 µM)

Q: What about the MIC (Nakaseomyces glabratus) of the same molecule?
A: 2 µg/mL (≈ 4.85 µM)

Q: What about the MIC (Candida parapsilosis) of the same molecule?
A: 0.5 µg/mL (≈ 1.21 µM)

Q: And the MIC (Aspergillus fumigatus)?
A: 8 µg/mL (≈ 19.4 µM)

Q: And the MIC (Candida albicans [3])?
A: 32 µg/mL

Q: And the MIC (Candida albicans [4])?
A: 4 µg/mL

Q: What about the MIC (Candida albicans [5]) of the same molecule?
A: 8 µg/mL

Q: What about the MIC (Candida albicans [6]) of the same molecule?
A: 4 µg/mL

Q: What about the MIC (Candida albicans [7]) of the same molecule?
A: 2 µg/mL

Q: `COc1cccc([Se]C(Cn2ccnc2)c2ccc(Cl)cc2Cl)c1` (configuration not stated) was tested. Which MIC (Candida albicans [1]) did it give?
A: 0.25 µg/mL (≈ 0.587 µM)

Q: What about the MIC (Candida albicans [2]) of the same molecule?
A: 0.03 µg/mL (≈ 0.0704 µM)

Q: And the MIC ([Candida] zeylanoides)?
A: 0.5 µg/mL (≈ 1.17 µM)

Q: What about the MIC (Cryptococcus neoformans) of the same molecule?
A: 0.25 µg/mL (≈ 0.587 µM)

Q: And the MIC (Pichia kudriavzevii)?
A: 0.06 µg/mL (≈ 0.141 µM)

Q: What about the MIC (Nakaseomyces glabratus) of the same molecule?
A: 0.5 µg/mL (≈ 1.17 µM)

Q: And the MIC (Candida parapsilosis)?
A: 0.5 µg/mL (≈ 1.17 µM)

Q: What about the MIC (Aspergillus fumigatus) of the same molecule?
A: 8 µg/mL (≈ 18.8 µM)

Q: And the MIC (Candida albicans [3])?
A: 8 µg/mL

Q: And the MIC (Candida albicans [4])?
A: 2 µg/mL

Q: And the MIC (Candida albicans [5])?
A: 16 µg/mL

Q: What about the MIC (Candida albicans [6]) of the same molecule?
A: 16 µg/mL

Q: What about the MIC (Candida albicans [7]) of the same molecule?
A: 4 µg/mL

Q: What about the Ratio (Candida albicans [8]) of the same molecule?
A: 8

Q: How did the MIC (Candida albicans [1]) turn out when `COc1ccccc1[Se]C(Cn1ccnc1)c1ccc(F)cc1F` (configuration not stated) was run?
A: 1 µg/mL (≈ 2.54 µM)

Q: And the MIC (Candida albicans [2])?
A: 0.02 µg/mL (≈ 0.0509 µM)

Q: And the MIC ([Candida] zeylanoides)?
A: 0.13 µg/mL (≈ 0.331 µM)

Q: What about the MIC (Cryptococcus neoformans) of the same molecule?
A: 1 µg/mL (≈ 2.54 µM)

Q: What about the MIC (Pichia kudriavzevii) of the same molecule?
A: 0.5 µg/mL (≈ 1.27 µM)

Q: What about the MIC (Nakaseomyces glabratus) of the same molecule?
A: 0.25 µg/mL (≈ 0.636 µM)

Q: And the MIC (Candida parapsilosis)?
A: 0.13 µg/mL (≈ 0.331 µM)

Q: What about the MIC (Aspergillus fumigatus) of the same molecule?
A: 8 µg/mL (≈ 20.3 µM)

Q: And the MIC (Candida albicans [3])?
A: 8 µg/mL

Q: What about the MIC (Candida albicans [4]) of the same molecule?
A: 8 µg/mL

Q: What about the MIC (Candida albicans [5]) of the same molecule?
A: 16 µg/mL

Q: And the MIC (Candida albicans [6])?
A: 4 µg/mL

Q: What about the MIC (Candida albicans [7]) of the same molecule?
A: 8 µg/mL

Q: And the Ratio (Candida albicans [8])?
A: 8

Q: With `Cc1ccccc1[Se]C(Cn1ccnc1)c1ccc(Cl)cc1Cl` (configuration not stated) as the molecule, how does the MIC (Candida albicans [1]) read?
A: 0.13 µg/mL (≈ 0.317 µM)

Q: What about the MIC (Candida albicans [2]) of the same molecule?
A: 0.03 µg/mL (≈ 0.0731 µM)

Q: What about the MIC ([Candida] zeylanoides) of the same molecule?
A: 0.5 µg/mL (≈ 1.22 µM)

Q: What about the MIC (Cryptococcus neoformans) of the same molecule?
A: 0.5 µg/mL (≈ 1.22 µM)

Q: What about the MIC (Pichia kudriavzevii) of the same molecule?
A: 0.13 µg/mL (≈ 0.317 µM)

Q: What about the MIC (Nakaseomyces glabratus) of the same molecule?
A: 0.25 µg/mL (≈ 0.609 µM)

Q: What about the MIC (Candida parapsilosis) of the same molecule?
A: 0.5 µg/mL (≈ 1.22 µM)

Q: And the MIC (Aspergillus fumigatus)?
A: 16 µg/mL (≈ 39 µM)

Q: And the MIC (Candida albicans [3])?
A: 4 µg/mL

Q: And the MIC (Candida albicans [4])?
A: 2 µg/mL

Q: And the MIC (Candida albicans [5])?
A: 0.5 µg/mL

Q: And the MIC (Candida albicans [6])?
A: 0.5 µg/mL

Q: What about the MIC (Candida albicans [7]) of the same molecule?
A: 0.5 µg/mL

Q: And the Ratio (Candida albicans [8])?
A: 8
